Assay results published in the NIST ThermoML archive (doi:10.1016/j.jct.2012.07.022).
Numbers after ± are expanded uncertainties.

Test: wn = mass fraction of the nth substance listed
Settings: 101 kPa, Liquid; for electrical conductivity: Alternating current cell with electrodes; for viscosity: Capillary tube (Ostwald / Ubbelohde) method; for mass density: Vibrating tube method

Nc1[nH]cnc2ncnc1-2 [6-amino-1H-purine] + CC(=O)[O-].CCn1cc[n+](C)c1
Settings | electrical conductivity [S/m] | mass density [kg/m3] | viscosity [mPa·s]
298.15 K, w2 = 0 | 0.296 ± 0.006 | 1097.6 ± 0.3 | 128.5 ± 5.5
298.15 K, w2 = 0.0482 | 0.209 ± 0.004 | 1111.1 ± 0.3 | 197.7 ± 9
298.15 K, w2 = 0.1008 | 0.143 ± 0.003 | 1124.3 ± 0.3 | 318 ± 16
298.15 K, w2 = 0.1514 | 0.0996 ± 0.002 | 1135 ± 0.3 | 498.1 ± 27
298.15 K, w2 = 0.2055 | 0.0672 ± 0.0014 | 1146.4 ± 0.3 | 823.2 ± 49
298.15 K, w2 = 0.2481 | 0.0471 ± 0.001 | 1154.5 ± 0.4 | 1235.7 ± 79
303.15 K, w2 = 0 | 0.382 ± 0.008 | 1094.5 ± 0.3 | 95.23 ± 4
303.15 K, w2 = 0.0482 | 0.278 ± 0.006 | 1107.9 ± 0.3 | 141 ± 6
303.15 K, w2 = 0.1008 | 0.197 ± 0.004 | 1121.1 ± 0.3 | 218 ± 10
303.15 K, w2 = 0.1514 | 0.142 ± 0.003 | 1131.7 ± 0.3 | 328.1 ± 16
303.15 K, w2 = 0.2055 | 0.0995 ± 0.002 | 1143 ± 0.3 | 517.9 ± 28
303.15 K, w2 = 0.2481 | 0.0718 ± 0.0015 | 1151.2 ± 0.3 | 748.9 ± 44
308.15 K, w2 = 0 | 0.48 ± 0.01 | 1091.4 ± 0.3 | 72.42 ± 2.9
308.15 K, w2 = 0.0482 | 0.362 ± 0.007 | 1104.9 ± 0.3 | 103.7 ± 4.4
308.15 K, w2 = 0.1008 | 0.264 ± 0.005 | 1118 ± 0.3 | 154.8 ± 6.8
308.15 K, w2 = 0.1514 | 0.196 ± 0.004 | 1128.6 ± 0.3 | 224.7 ± 10
308.15 K, w2 = 0.2055 | 0.142 ± 0.003 | 1139.8 ± 0.3 | 341.2 ± 17
308.15 K, w2 = 0.2481 | 0.105 ± 0.002 | 1147.9 ± 0.3 | 477.5 ± 26
313.15 K, w2 = 0 | 0.594 ± 0.012 | 1088.4 ± 0.3 | 56.38 ± 2.3
313.15 K, w2 = 0.0482 | 0.459 ± 0.009 | 1101.9 ± 0.3 | 78.37 ± 3.2
313.15 K, w2 = 0.1008 | 0.346 ± 0.007 | 1114.9 ± 0.3 | 113.4 ± 4.8
313.15 K, w2 = 0.1514 | 0.262 ± 0.005 | 1125.5 ± 0.3 | 159.6 ± 7.1
313.15 K, w2 = 0.2055 | 0.194 ± 0.004 | 1136.6 ± 0.3 | 233.9 ± 11
313.15 K, w2 = 0.2481 | 0.148 ± 0.003 | 1144.7 ± 0.3 | 318.1 ± 16
318.15 K, w2 = 0 | 0.827 ± 0.017 | 1085.3 ± 0.3 | 44.79 ± 1.8
318.15 K, w2 = 0.0482 | 0.571 ± 0.011 | 1098.8 ± 0.3 | 60.64 ± 2.4
318.15 K, w2 = 0.1008 | 0.439 ± 0.009 | 1111.9 ± 0.3 | 85.36 ± 3.5
318.15 K, w2 = 0.1514 | 0.34 ± 0.01 | 1122.4 ± 0.3 | 116.8 ± 5
318.15 K, w2 = 0.2055 | 0.259 ± 0.005 | 1133.5 ± 0.3 | 166 ± 7
318.15 K, w2 = 0.2481 | 0.202 ± 0.004 | 1141.6 ± 0.3 | 220.1 ± 10
323.15 K, w2 = 0 | 0.986 ± 0.02 | 1082.3 ± 0.3 | 36.23 ± 1.5
323.15 K, w2 = 0.0482 | 0.695 ± 0.014 | 1095.8 ± 0.3 | 47.91 ± 1.9
323.15 K, w2 = 0.1008 | 0.546 ± 0.011 | 1108.9 ± 0.3 | 65.78 ± 2.7
323.15 K, w2 = 0.1514 | 0.431 ± 0.009 | 1119.4 ± 0.3 | 87.9 ± 3.6
323.15 K, w2 = 0.2055 | 0.336 ± 0.007 | 1130.4 ± 0.3 | 121.4 ± 5.2
323.15 K, w2 = 0.2481 | 0.267 ± 0.005 | 1138.5 ± 0.3 | 157.4 ± 7
328.15 K, w2 = 0 | – | 1079.3 ± 0.3 | 29.78 ± 1.2
328.15 K, w2 = 0.0482 | – | 1092.9 ± 0.3 | 38.55 ± 1.6
328.15 K, w2 = 0.1008 | – | 1105.9 ± 0.3 | 51.75 ± 2.1
328.15 K, w2 = 0.1514 | – | 1116.4 ± 0.3 | 67.64 ± 2.8
328.15 K, w2 = 0.2055 | – | 1127.5 ± 0.3 | 91.14 ± 3.8
328.15 K, w2 = 0.2481 | – | 1135.4 ± 0.3 | 115.9 ± 4.9
333.15 K, w2 = 0 | – | 1076.2 ± 0.3 | 24.82 ± 1
333.15 K, w2 = 0.0482 | – | 1089.9 ± 0.3 | 31.51 ± 1.3
333.15 K, w2 = 0.1008 | – | 1102.9 ± 0.3 | 41.48 ± 1.7
333.15 K, w2 = 0.1514 | – | 1113.4 ± 0.3 | 53.16 ± 2.1
333.15 K, w2 = 0.2055 | – | 1124.5 ± 0.3 | 70.05 ± 2.9
333.15 K, w2 = 0.2481 | – | 1132.5 ± 0.3 | 87.5 ± 3.6
338.15 K, w2 = 0 | – | 1073.3 ± 0.3 | 20.95 ± 0.85
338.15 K, w2 = 0.0482 | – | 1086.9 ± 0.3 | 26.14 ± 1.1
338.15 K, w2 = 0.1008 | – | 1099.9 ± 0.3 | 33.78 ± 1.4
338.15 K, w2 = 0.1514 | – | 1110.4 ± 0.3 | 42.55 ± 1.7
338.15 K, w2 = 0.2055 | – | 1121.5 ± 0.3 | 54.95 ± 2.2
338.15 K, w2 = 0.2481 | – | 1129.5 ± 0.3 | 67.57 ± 2.8
343.15 K, w2 = 0 | – | 1070.3 ± 0.3 | 17.88 ± 0.72
343.15 K, w2 = 0.0482 | – | 1083.9 ± 0.3 | 21.96 ± 0.89
343.15 K, w2 = 0.1008 | – | 1096.9 ± 0.3 | 27.91 ± 1.1
343.15 K, w2 = 0.1514 | – | 1107.4 ± 0.3 | 34.61 ± 1.4
343.15 K, w2 = 0.2055 | – | 1118.5 ± 0.3 | 43.91 ± 1.8
343.15 K, w2 = 0.2481 | – | 1126.4 ± 0.3 | 53.21 ± 2.1
